Data taken from ChEMBL document CHEMBL4622979, “Non-rigid Diarylmethyl Analogs of Baloxavir as Cap-Dependent Endonuclease Inhibitors of Influenza Viruses” (J Med Chem, 2020).

Experiments:
[1] = Elimination rate constant in CD1 mouse brain assessed as (12aR)-12-(Diphenylmethyl)-7-hydroxy-3,4,12,12a-tetrahydro-1H-[1,4]oxazino[3,4-c]pyrido[2,1-f ][1,2,4]triazine-6,8-dione level at 15 mg/kg, po administered as single dose measured up to 24 hrs by LC-MS/MS analysis; type: ADME, organism-based; details: in vivo
[2] = Tmax in CD1 mouse lung assessed as (12aR)-12-(Diphenylmethyl)-7-hydroxy-3,4,12,12a-tetrahydro-1H-[1,4]oxazino[3,4-c]pyrido[2,1-f ][1,2,4]triazine-6,8-dione level at 15 mg/kg, po administered as single dose measured up to 24 hrs by LC-MS/MS analysis; type: ADME, organism-based; details: in vivo
[3] = Tmax in CD1 mouse heart assessed as (12aR)-12-(Diphenylmethyl)-7-hydroxy-3,4,12,12a-tetrahydro-1H-[1,4]oxazino[3,4-c]pyrido[2,1-f ][1,2,4]triazine-6,8-dione level at 15 mg/kg, po administered as single dose measured up to 24 hrs by LC-MS/MS analysis; type: ADME, organism-based; details: in vivo
[4] = Elimination rate constant in CD1 mouse liver assessed as (12aR)-12-(Diphenylmethyl)-7-hydroxy-3,4,12,12a-tetrahydro-1H-[1,4]oxazino[3,4-c]pyrido[2,1-f ][1,2,4]triazine-6,8-dione level at 15 mg/kg, po administered as single dose measured up to 24 hrs by LC-MS/MS analysis; type: ADME, organism-based; details: in vivo
[5] = AUClast in CD1 mouse blood assessed as (12aR)-12-(Diphenylmethyl)-7-hydroxy-3,4,12,12a-tetrahydro-1H-[1,4]oxazino[3,4-c]pyrido[2,1-f ][1,2,4]triazine-6,8-dione level at 15 mg/kg, po administered as single dose measured up to 24 hrs by LC-MS/MS analysis; type: ADME, organism-based; details: in vivo
[6] = Half life in CD1 mouse blood assessed as (12aR)-12-(Diphenylmethyl)-7-hydroxy-3,4,12,12a-tetrahydro-1H-[1,4]oxazino[3,4-c]pyrido[2,1-f ][1,2,4]triazine-6,8-dione level at 15 mg/kg, po administered as single dose measured up to 24 hrs by LC-MS/MS analysis; type: ADME, organism-based; details: in vivo
[7] = Elimination rate constant in CD1 mouse small intestine assessed as (12aR)-12-(Diphenylmethyl)-7-hydroxy-3,4,12,12a-tetrahydro-1H-[1,4]oxazino[3,4-c]pyrido[2,1-f ][1,2,4]triazine-6,8-dione level at 15 mg/kg, po administered as single dose measured up to 24 hrs by LC-MS/MS analysis; type: ADME, organism-based; details: in vivo
[8] = MRTlast in CD1 mouse plasma assessed as (12aR)-12-(Diphenylmethyl)-7-hydroxy-3,4,12,12a-tetrahydro-1H-[1,4]oxazino[3,4-c]pyrido[2,1-f ][1,2,4]triazine-6,8-dione level at 15 mg/kg, po administered as single dose measured up to 24 hrs by LC-MS/MS analysis; type: ADME, organism-based; details: in vivo
[9] = Ratio of AUClast in CD1 mouse lung to plasma assessed as (12aR)-12-(Diphenylmethyl)-7-hydroxy-3,4,12,12a-tetrahydro-1H-[1,4]oxazino[3,4-c]pyrido[2,1-f ][1,2,4]triazine-6,8-dione level at 15 mg/kg, po administered as single dose measured up to 24 hrs by LC-MS/MS analysis; type: ADME, organism-based; details: other tissue
[10] = Tmax in CD1 mouse blood assessed as (12aR)-12-(Diphenylmethyl)-7-hydroxy-3,4,12,12a-tetrahydro-1H-[1,4]oxazino[3,4-c]pyrido[2,1-f ][1,2,4]triazine-6,8-dione level at 15 mg/kg, po administered as single dose measured up to 24 hrs by LC-MS/MS analysis; type: ADME, organism-based; details: in vivo
[11] = Acute toxicity in CD1 mouse assessed as effect on water consumption at 2000 mg/kg, po measured for 2 weeks; type: organism-based; details: in vivo, 336 h
[12] = Tmax in CD1 mouse blood assessed as baloxavir acid level at 15 mg/kg, po administered as single dose measured up to 24 hrs by LC-MS/MS analysis; type: ADME, organism-based; details: in vivo
[13] = MRTlast in CD1 mouse heart assessed as baloxavir acid level at 15 mg/kg, po administered as single dose measured up to 24 hrs by LC-MS/MS analysis; type: ADME, organism-based; details: in vivo
[14] = Elimination rate constant in CD1 mouse kidney assessed as baloxavir acid level at 15 mg/kg, po administered as single dose measured up to 24 hrs by LC-MS/MS analysis; type: ADME, organism-based; details: in vivo
[15] = Ratio of AUClast in CD1 mouse brain to plasma assessed as baloxavir acid level at 15 mg/kg, po administered as single dose measured up to 24 hrs by LC-MS/MS analysis; type: ADME, organism-based
[16] = MRTlast in CD1 mouse spleen assessed as baloxavir acid level at 15 mg/kg, po administered as single dose measured up to 24 hrs by LC-MS/MS analysis; type: ADME, organism-based; details: in vivo
[17] = AUCinfinity in CD1 mouse small intestine assessed as baloxavir acid level at 15 mg/kg, po administered as single dose measured up to 24 hrs by LC-MS/MS analysis; type: ADME, organism-based; parameters: dose 15 mg/kg, route oral, time infinity; details: in vivo
[18] = Cmax in CD1 mouse liver assessed as baloxavir acid level at 15 mg/kg, po administered as single dose measured up to 24 hrs by LC-MS/MS analysis; type: ADME, organism-based; parameters: dose 15 mg/kg, route oral; details: in vivo
[19] = AUCinfinity in CD1 mouse blood assessed as baloxavir acid level at 15 mg/kg, po administered as single dose measured up to 24 hrs by LC-MS/MS analysis; type: ADME, organism-based; parameters: dose 15 mg/kg, time infinity, route oral; details: in vivo
[20] = Tmax in CD1 mouse plasma assessed as baloxavir acid level at 15 mg/kg, po administered as single dose measured up to 24 hrs by LC-MS/MS analysis; type: ADME, organism-based; details: in vivo
[21] = AUCinfinity in CD1 mouse liver assessed as baloxavir acid level at 15 mg/kg, po administered as single dose measured up to 24 hrs by LC-MS/MS analysis; type: ADME, organism-based; parameters: dose 15 mg/kg, route oral, time infinity; details: in vivo
[22] = Ratio of AUClast in CD1 mouse heart to plasma assessed as baloxavir acid level at 15 mg/kg, po administered as single dose measured up to 24 hrs by LC-MS/MS analysis; type: ADME, organism-based; details: other tissue
[23] = Ratio of AUClast in CD1 mouse kidney to plasma assessed as baloxavir acid level at 15 mg/kg, po administered as single dose measured up to 24 hrs by LC-MS/MS analysis; type: ADME, organism-based; details: other tissue
[24] = Tmax in CD1 mouse spleen assessed as baloxavir acid level at 15 mg/kg, po administered as single dose measured up to 24 hrs by LC-MS/MS analysis; type: ADME, organism-based; details: in vivo
[25] = Tmax in CD1 mouse brain assessed as baloxavir acid level at 15 mg/kg, po administered as single dose measured up to 24 hrs by LC-MS/MS analysis; type: ADME, organism-based; details: in vivo
[26] = AUClast in CD1 mouse lung assessed as baloxavir acid level at 15 mg/kg, po administered as single dose by LC-MS/MS analysis; type: ADME, organism-based; details: in vivo
[27] = AUCinfinity in CD1 mouse heart assessed as baloxavir acid level at 15 mg/kg, po administered as single dose measured up to 24 hrs by LC-MS/MS analysis; type: ADME, organism-based; parameters: dose 15 mg/kg, time infinity, route oral; details: in vivo

For `COC(=O)OCOc1c2n(ccc1=O)N(C(c1ccccc1)c1ccccc1)[C@@H]1COCCN1C2=O`, which Kel [1] is on record?
The Kel was 0.08 h⁻¹.

And the Tmax [2]?
Its Tmax is 0.5 h.

And the Tmax [3]?
Its Tmax is 0.5 h.

What about the Kel [4] of the same compound?
Its Kel is 0.3 h⁻¹.

What about the AUClast [5] of the same compound?
Its AUClast is 2746 ng·h/g.

And the t1/2 [6]?
The t1/2 was 1.74 h.

And the Kel [7]?
Its Kel is 0.54 h⁻¹.

What about the MRTlast [8] of the same compound?
Its MRTlast is 1.67 h.

And the “Ratio AUC” value [9]?
The value was 2.53.

And the Tmax [10]?
The Tmax was 0.5 h.

What about the Activity [11] of the same compound?
The Activity was “Non-Toxic”.

With `COC(=O)OCOc1c2n(ccc1=O)N([C@@H]1c3ccccc3SCc3c1ccc(F)c3F)[C@@H]1COCCN1C2=O` [BALOXAVIR MARBOXIL] as the compound, how does the Tmax [12] read?
The Tmax was 2 h.

What about the MRTlast [13] of the same compound?
The MRTlast was 4.84 h.

And the Kel [14]?
Its Kel is 0.21 h⁻¹.

And the “Ratio AUC” value [15]?
Its value is 0.7.

And the MRTlast [16]?
Its MRTlast is 5.54 h.

And the AUC [17]?
Its AUC is 106028 ng·h/g.

And the Cmax [18]?
Its Cmax is 15342 ng/g.

And the AUC [19]?
The AUC was 1390 ng·h/g.

What about the Tmax [20] of the same compound?
Its Tmax is 2 h.

And the AUC [21]?
Its AUC is 85348 ng·h/g.

What about the “Ratio AUC” value [22] of the same compound?
Its value is 19.8.

And the “Ratio AUC” value [23]?
The value was 46.8.

What about the Tmax [24] of the same compound?
The Tmax was 2 h.

What about the Tmax [25] of the same compound?
Its Tmax is 2 h.

And the AUClast [26]?
Its AUClast is 11909 ng·h/g.

What about the AUC [27] of the same compound?
The AUC was 9025 ng·h/g.
